The values below come from patent publication US20220315554A1, “COMPOUNDS COMPRISING A […] LIGAND AND USE THEREOF” (priority 2019, published 2022).

SMILES strings stand for the structures. pIC50, pKd, pKi: −log10 of the molar value. Numbered stars: 1 amine (or outer) side, 2 acyl side, 3 side chain; on linkers, the order of the positions; unused ones are H or OH. Bridge positions count the residues as written; N and C are the ends. Peptide text beside a SMILES is read from it. * marks the point of attachment. X1 = O=C(O)CN1CCN(CC(=O)O)CCN(CC(=O)N2CCN(Cc3cc(C[*:1])cc(C[*:2])c3)CC2)CCN(CC(=O)O)CC1; Hexanoyl = CCCCCC(=O)* Bounds are passed on as bounds.

Series [1] has as its target 5-HT2B (h) (Homo sapiens, UniProt P41595). Particulars: read-out: Ki Ref, reference compound (positive control).
Series [2] deals with T1, Human recombinant FAP (Homo sapiens, UniProt Q12884).
T1 sequence (Q12884 1-760): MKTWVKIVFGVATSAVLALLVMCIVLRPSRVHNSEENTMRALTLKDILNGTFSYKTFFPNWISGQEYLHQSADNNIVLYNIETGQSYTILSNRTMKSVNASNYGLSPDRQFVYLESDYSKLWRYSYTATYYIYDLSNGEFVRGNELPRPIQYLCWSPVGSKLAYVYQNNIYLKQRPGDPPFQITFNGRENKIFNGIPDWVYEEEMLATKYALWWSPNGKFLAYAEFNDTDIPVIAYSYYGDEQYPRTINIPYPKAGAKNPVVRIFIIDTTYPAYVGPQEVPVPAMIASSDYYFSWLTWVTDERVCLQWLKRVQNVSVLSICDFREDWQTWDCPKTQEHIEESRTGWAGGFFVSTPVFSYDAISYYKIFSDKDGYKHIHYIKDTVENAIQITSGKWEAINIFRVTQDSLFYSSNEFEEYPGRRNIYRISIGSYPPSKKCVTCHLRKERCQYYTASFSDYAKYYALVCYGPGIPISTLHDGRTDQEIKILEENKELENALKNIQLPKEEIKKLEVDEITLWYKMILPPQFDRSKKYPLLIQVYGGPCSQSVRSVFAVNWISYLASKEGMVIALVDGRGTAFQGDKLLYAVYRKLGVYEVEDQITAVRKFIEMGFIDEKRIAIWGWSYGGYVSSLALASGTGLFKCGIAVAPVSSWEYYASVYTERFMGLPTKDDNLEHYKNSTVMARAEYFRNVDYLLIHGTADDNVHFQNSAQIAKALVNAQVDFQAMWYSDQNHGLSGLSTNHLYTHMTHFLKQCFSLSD
Nature of the series: Surface plasmon resonance (Biacore) assay. The class given is binding. (In SPR one partner is held on a chip, and binding of the other changes the refractive index at the surface.)

The target of series [3] is hERG potassium channel (Homo sapiens, UniProt Q12809). Nature of the series: in vitro.
Series [4] deals with KV channel. Particulars: 10 μM.
The subject of series [5] is NMDA. The note with it: 10 μM.
Series [6] can be described thus: Plasma stability assay, human plasma. The format is in vitro ADME. Particulars: 24 h incubation, 37° C., read-out: % intact compound remaining after incubation, Human plasma.
For series [7], the system named is Ca2+ channel (L, dihydropyridine site). Particulars: 10 μM.
Series [8] has as its target AR (h) (Homo sapiens, UniProt P10275, T878A). Nature of the series: biochemical. Particulars: read-out: % Inhibition of Specific Binding.
Series [9] is described as follows: in vitro. Particulars: rat, plasma.
The subject of series [10] is BZD (central). Particulars: 10 μM.
Series [11] addresses T1, Human recombinant FAP. Nature of the series: FRET-based FAP protease activity assay. Particulars: pIC50 Category (Activity), recombinant human FAP, FRET substrate, 37° C. Set-up: purchased R&D systems 3715-SE. The format is biochemical.
The target in series [12] is T2, Recombinant human DPP4 (Homo sapiens, UniProt P27487).
T2 construct: purchased R&D systems 9168-SE
Nature of the series: DPP4 protease activity assay. The class given is biochemical.

Series [13] addresses T3, FAP-expressing human WI-38 fibroblasts (Homo sapiens, UniProt Q12884).
T3 construct: FAP-expressing human WI-38 fibroblasts (ECACC) were cultured in EMEM; host or cells: WI-38 human fibroblasts
T3 sequence (Q12884 1-760): T1 sequence (Q12884 1-760)
Nature of the series: Competitive FACS binding assay. The note with it: pIC50 Category (FACS), competition with 3 nM Cy5-labeled compound, WI-38 fibroblasts, 4° C., 1 hour. On the procedure:
Cells were analyzed in an Attune NxT flow cytometer. […]
A general note: Flow cytometry measures light scatter and fluorescence of single cells or particles in a stream.

For series [14], the target named is T4, recombinant human PREP (Homo sapiens, UniProt P48147).
T4 construct: purchased R&D systems 4308-SE
T4 sequence (P48147 1-710): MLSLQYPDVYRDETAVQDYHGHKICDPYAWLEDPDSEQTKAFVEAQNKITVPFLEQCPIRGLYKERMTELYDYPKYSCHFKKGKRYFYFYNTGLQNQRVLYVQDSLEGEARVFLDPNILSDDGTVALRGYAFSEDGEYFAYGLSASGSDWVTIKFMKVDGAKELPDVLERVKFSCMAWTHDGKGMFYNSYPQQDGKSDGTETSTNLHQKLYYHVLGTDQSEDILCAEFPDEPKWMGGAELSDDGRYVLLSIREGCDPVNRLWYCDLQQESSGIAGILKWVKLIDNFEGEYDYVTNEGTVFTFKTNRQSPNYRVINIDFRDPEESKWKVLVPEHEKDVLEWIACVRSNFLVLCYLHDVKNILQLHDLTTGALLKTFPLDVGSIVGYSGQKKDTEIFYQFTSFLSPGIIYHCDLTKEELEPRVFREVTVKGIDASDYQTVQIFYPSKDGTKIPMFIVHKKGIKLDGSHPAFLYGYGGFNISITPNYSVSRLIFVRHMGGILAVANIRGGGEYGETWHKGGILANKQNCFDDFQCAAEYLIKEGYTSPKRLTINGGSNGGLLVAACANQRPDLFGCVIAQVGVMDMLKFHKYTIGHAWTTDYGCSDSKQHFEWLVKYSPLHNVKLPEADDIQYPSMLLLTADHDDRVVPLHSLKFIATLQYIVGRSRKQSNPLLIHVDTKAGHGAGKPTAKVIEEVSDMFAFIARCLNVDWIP
Nature of the series: PREP protease activity assay. The format is biochemical.

Series [15] has as its system Na+ channel (site 2). Nature of the series: SafetyScreen44: Na+ channel (site 2) (antagonist radioligand). The format is binding. The note with it: 10 μM.
Series [16] has as its target T5, proteases (Hepatitis C virus genotype 1b, UniProt P26663, R1181K).
T5 construct: BPS Biosciences (contract assay)
Nature of the series: biochemical. Particulars: read-out: Percentage inhibition (%).

Series [17] addresses T6, proteases (Hepatitis C virus genotype 1b, UniProt P26663, R1181Q).
T6 construct: BPS Biosciences (contract assay)
Nature of the series: biochemical. Particulars: read-out: Percentage inhibition (%).

The target in series [18] is T7, proteases (Hepatitis C virus genotype 1b, UniProt P26663).
T7 construct: BPS Biosciences (contract assay)
Nature of the series: biochemical. Particulars: read-out: Percentage inhibition (%).

Series [19] has as its target T8, proteases (Hepatitis C virus genotype 1a, UniProt P27958, D1194V).
T8 construct: BPS Biosciences (contract assay)
Nature of the series: biochemical. The note with it: read-out: Percentage inhibition (%).

The target of series [20] is T9, proteases (Hepatitis C virus genotype 1b, UniProt P26663, D1194V).
T9 construct: BPS Biosciences (contract assay)
Nature of the series: biochemical. Particulars: read-out: Percentage inhibition (%).

Series [21] is described as follows: Plasma stability assay, mouse plasma. Particulars: 24 h incubation, 37° C., read-out: % intact compound remaining after incubation, Mouse plasma. The class given is in vitro ADME.
The nature of series [22]: in vivo. Particulars: rat, plasma, intravenous; for Vd: rat plasma.
Series [23] has as its target alpha 1A (h) (Homo sapiens, UniProt P35348). The note with it: read-out: Ki Ref, reference compound (positive control).
Series [24] relates to HEK-FAP tumors. Nature of the series: Efficacy study HEK-FAP tumors. The note with it: throughout the study.
Series [25] relates to Sarc4809 PDX tumors. Nature of the series: Efficacy study sarcoma Sarc4809 PDX model. Particulars: throughout the study.

As for `COc1cc(CC(C)N)c(OC)cc1I` (racemic) [(±)DOI], in series [1], the negative logarithm of the Ki (pKi) (as a rule, −log10 of the Ki, conventionally taken in molar units) is 8.38.

For the compound `CCCCCC(=O)N[C@H]1CSCc2cc(cc(CN3CCN(C(=O)CN4CCN(CC(=O)O)CCN(CC(=O)O)CCN(CC(=O)O)CC4)CC3)c2)CSC[C@@H](C(=O)N[C@@H](CC(=O)O)C(N)=O)NC(=O)[C@H](Cc2ccccc2)NC(=O)[C@H](CCC(N)=O)NC(=O)[C@H]([C@@H](C)O)NC(=O)[C@@H]2CCCN2C(=O)[C@@H]2CCCN2C1=O` [3BP-3407, Hex-[Cys(tMeBn(DOTA-PP))-Pro-Pro-Thr-Gln-Phe-Cys]-Asp-NH2] (Hexanoyl-CPPTQFCD-NH2; linker 1-7 via X1), the pKd – broadly, −log10 of the Kd, conventionally taken in molar units – in [2] is greater than 8.00. Moreover, the inhibition (as a rule, the change of the read-out against control, counted positive when it falls) at 10 µM is 2% in [3]; 3% in series [8]; 5% in series [16]; 2% in series [17]; 5% in series [18]; -68% in [19]. Besides, in [20], the inhibition at 10 µM was -6%. The “% Inhibition of Specific Binding” value is −5% in series [4]; 9% in [5]; 42% in series [7]; −9% in [10]; −7% in series [15]. For the same compound, the fraction remaining (usually the share of the starting amount still present when the sample was taken) at 24 h, 9.8 µM stood at 100% in series [6], 100% in series [9] and 79% in series [21]. Besides, the negative-log IC50 (pIC50) (as a rule, the negative decadic logarithm of the IC50, by convention in mol/L) in series [11] is greater than 8.00; in series [12], less than 6.00; in series [13], greater than 8.00; in series [14] it was less than 6.00. Also, the inhibition at 1 µM in series [16] is -2%; in series [17], 0%; in series [18], 1%; in series [19] it was 1%; in series [20], 1%.

Consider `CCCCCC(=O)N[C@H]1CSCc2cc(CSCCNC(=O)CN3CCN(CC(=O)O)CCN(CC(=O)O)CCN(CC(=O)O)CC3)cc(c2)CSC[C@@H](C(=O)O)NC(=O)[C@H](Cc2ccccc2)NC(=O)[C@H](CCC(N)=O)NC(=O)[C@H]([C@@H](C)O)NC(=O)[C@@H]2CCCN2C(=O)[C@@H]2CCCN2C1=O` [3BP-3554, Hex-[Cys(tMeBn(DOTA-AET))-Pro-Pro-Thr-Gln-Phe-Cys]-OH], for which the pKd in [2] was greater than 8.00. Besides, the inhibition at 10 µM in [3] was 6%; in [8], -5%; in [16] it was 0%; in series [17], -5%; in series [18], -9%; in series [20] it was -17%. Also, the “% Inhibition of Specific Binding” value is reported as 4% in series [4]; 1% in [5]; 54% in series [7]; 5% in series [10]; 14% in series [15]. Further, the share remaining at 24 h, 9.8 µM in series [6] and in series [9] was 100% in each case. In addition, the figures for the AUC(0-inf) in series [22] (2 nmol/kg), in series [22] (20 nmol/kg) and in series [22] (200 nmol/kg) were 0.0081 µM·h, 0.069 µM·h and 0.726 µM·h, respectively. Besides, the C0 in series [22] (2 nmol/kg) came to 10.3 nM; in [22] (20 nmol/kg), 111 nM; in [22] (200 nmol/kg), 1480 nM. Besides, the clearance (as a rule, a measure of how efficiently the substance is removed, as volume per time) was 4.13 mL/min/kg in series [22] (2 nmol/kg), 4.85 mL/min/kg in series [22] (20 nmol/kg) and 4.58 mL/min/kg in series [22] (200 nmol/kg). For the same compound, the half-life (usually the time in which the quantity being followed falls by half) turned out to be 54 min in series [22] (2 nmol/kg), 50 min in series [22] (20 nmol/kg) and 63 min in series [22] (200 nmol/kg). The Vd (commonly the apparent volume that relates the amount in the body to the concentration in plasma or blood) came out at 0.28 L/kg in series [22] (2 nmol/kg, Vss, 2 nmol/kg); 0.32 L/kg in series [22] (2 nmol/kg, Vz); 0.3 L/kg in [22] (20 nmol/kg, Vss, 20 nmol/kg); 0.35 L/kg in series [22] (20 nmol/kg, Vz); 0.17 L/kg in series [22] (200 nmol/kg, Vss, 200 nmol/kg); 0.42 L/kg in series [22] (200 nmol/kg, Vz). Also, the pIC50 in series [11] was greater than 8.00; in series [12], less than 6.00; in series [13], greater than 8.00; in series [14], less than 6.00. The inhibition at 1 µM is -1% in series [16]; 0% in series [17]; -5% in series [18]; -39% in series [19]; -2% in series [20].

`COc1cccc(OC)c1OCCNCC1COc2ccccc2O1` (stereo not shown) [WB 4101]: in series [23], the pKi is 9.62.

As for `CCCCCC(=O)N[C@H]1CSCc2cc(CSCCNC(=O)CN3CCN(CC(=O)O)CCN(CC(=O)O)CCN(CC(=O)O)CC3)cc(c2)CSC[C@@H](C(=O)O)NC(=O)[C@H](Cc2ccccc2)NC(=O)[C@H](CCC(N)=O)NC(=O)[C@H]([C@@H](C)O)NC(=O)[C@@H]2CCCN2C(=O)[C@@H]2CCCN2C1=O` [^177Lu-3BP-3554, metal not drawn], in [24], the “treatment-related body weight loss” value is given as “No treatment-related body weight loss”. Further, the “treatment-related body weight loss (BWL)” value in [25] is recorded as “No treatment-related body weight loss”.
